Values quoted from earlier work in patent US20130252843A1, “METHOD OF MAKING AND USING FLUORESCENT-TAGGED NANOPARTICLES AND MICROARRAYS” (THE STATE OF OREGON ACTING BY AND THROUGH THE STATE BOARD …, priority 2010, published 2013).
Like-named read-outs stand apart in the source and are kept apart here.

How the values were obtained:
[1] = biological target: CVN-M, Cyanovirin-N Mut^DB (CV-N^MutDB) mutant (Nostoc ellipsosporum, UniProt P81180); settings: reported association constants, cited from earlier work
[2] = biological target: CVN-Q, Cyanovirin-N Q^50C (Q50C) mutant (Nostoc ellipsosporum, UniProt P81180, Q50C); settings: cited from earlier work
Con A, Concanavalin A = Con A, Concanavalin A (Canavalia ensiformis, UniProt P02866); settings: reported solution association constants, cited from earlier work
[3] = biological target: CVN (Cyanovirin-N mutants); settings: cited from earlier work
[4] = biological target: RCA, Ricinus Communis Agglutinin I; settings: cited from earlier work
PNA, Peanut Agglutinin = biological target: T1, PNA, Peanut Agglutinin (Arachis hypogaea, UniProt P02872); settings: cited from earlier work
T1 construct: purchased Sigma-Aldrich

[5] = biological target: BS-I, Bandeiraea simplicifolia lectin; settings: cited from earlier work
[6] = biological target: DBA, Dolichos Biflorus Agglutinin; settings: cited from earlier work

Row | SMILES | Ka [1] | Ka ([1]; listed as 2α, 2α-Man3) | Ka ([2]; Domain A) | Ka ([2]; Domain B) | Ka (Con A, Concanavalin A) | Ka (Con A, Concanavalin A; listed as 2α, 2α-Man3) | Ka (Con A, Concanavalin A; listed as Man3) | Ka [3] | Ka [4] | Ka (PNA, Peanut Agglutinin) | Ka [5] | Ka [6]
1 | OC[C@H]1O[C@H](O[C@@H]2[C@@H](O[C@@H]3C(O)O[C@H](CO)[C@@H](O)[C@@H]3O)O[C@H](CO)[C@@H](O)[C@@H]2O)[C@@H](O)[C@@H](O)[C@@H]1O (stereo partly drawn) [2α,2α-Man3, α-1,2-α-1,2-mannotriose] | 294000 M⁻¹ | 294000 M⁻¹ | 2.94 × 10^5 (Domain A); M^−1 | 2.33 × 10^4 (Domain B) M^−1 | 379000 M⁻¹ | 379000 M⁻¹ | 10^5-10^6 M^−1 | 10^5-10^6 M^−1 | – | – | – | –
2 | CC(=O)N[C@H]1C(O)O[C@H](CO)[C@H](O)[C@@H]1O (stereo partly drawn) [GalNAc, N-acetylgalactosamine] | – | – | – | – | – | – | – | – | 48400 M⁻¹ | 2430 M⁻¹ | 187000 M⁻¹ | ~10^3 M^−1
